Test results as given in patent US20030144345A1, “Treatment of metabolic diseases with soraphen derivatives” (priority 2001, published 2003).

Key:
[1] = system: Wistar rats; experiment: In vivo oxidation of [U-14C]palmitate (exhaled 14CO2); set-up: species or system rat; conditions: 30 mg/kg s.c.
Experimental: Compound (Ia) was tested in normal Wistar rats by two different methods to assess in vivo a) direct effects on fatty acid oxidation by following the conversion of [^14C]-labeled palmitate to ^14CO2 exhaled by the animals and b) effects on total lipid utilization as determined by indirect calorimetry.
a) In vivo oxidation of [U-^14C]palmitate. Male Wistar rats (240-360 g) were given chow food ad libitum. The day before the experiment each animal was singly caged and food was withdrawn 2.5 hours before the experiment. The animals were given [U-^14C]palmitate (5 μCi) dissolved in 500 μl of olive oil by gavage and compound (Ia) (30 mg/kg) or saline (vehicle) by subcutaneous injection. Immediately after receiving [U-^14C]palmitate and compound (Ia) or vehicle, the animals were kept singly in a metabolic chamber during six hours. The chamber was set up to allow quantive recovery of ^14CO2 exhaled by the animals. The chamber consisted of a desiccator with an elevated platform for the rat, an inlet for air at the bottom wall of the vessel. The flow of the air-exchange was controlled by a flow meter connected to a vacuum pump and set to 50 litres/hour. The temperature inside the chamber was kept at 22° C. Exhaled ^14CO2 from the animals was absorbed by a flask containing 500 ml of Carbosorb E (Canberra Packard).

[2] = system: differentiated L6 cells; experiment: Fatty acid (palmitate) oxidation assay with differentiated rat L6 muscle cells;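 further: differentiated rat L6 myotubes fed [14C]-palmitate, with oxidation read as 14CO2 trapped on filters and counted by liquid scintillation after 3 to 8 h at 37 °C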
Experimental: Labeling medium to assay oxidation of fatty acids was composed of glucose-deficient DMEM containing 3.7 g/l NaHCO3, 25 mM HEPES-NaOH, 0.5% fatty acid-free bovine serum albumin (BSA), 0.1% ethanol, 0.5% DMSO (or test compounds dissolved in DMSO), 5 mM D-glucose, and 16 μM unlabeled palmitate plus 0.25 μM [U-^14C]palmitate (approx. 800 mCi/mmol). After the addition of labeling medium, the cell culture plates were sealed air tight with self adhesive Super Sealing Film (Life Systems Design, #02-2796-3001). Before sealing, twelve 1 cm^2 squares of filter paper (Schleicher & Schuell, #GB004) pretreated with 50 μl of highly basic tissue solubilizer solution NCSII (Amersham Pharmacia, #NNCS-502) were attached to the lower side of the sealing film. Upon sealing of the tissue culture plates, the filters were positioned in the center above each well, and served to capture the evolving ^14CO2 that was produced by the cells in each individual well. After an incubation between 3 to 8 hours at 37° C., the filters were removed from the sealing film and the captured ^14CO2 was quantitated by liquid scintillation counting with 2 ml of scintillation cocktail BCS-NA (Amersham Pharmacia, #NBCS204) in a Tri-Carb liquid scintillation counter (Canberra Packard).
Cultivation of the differentiating rat muscle cell line L6 for fatty acid oxidation assays was performed as follows. For routine passaging, L6 cells (ATCC) were grown in T75 flasks in 15 ml of MEM Alpha medium (Gibco BRL Life Technologies, #22571-038), containing 10% heat inactivated FBS and 1% antibiotic/antimycotic solution (Gibco BRL Life Technologies, #15240-062). Incubation was done at 37° C. in a humid atmosphere containing 5% CO2. The cells were passaged twice per week by trypsinization.
For fatty acid oxidation assays, each well of a 12-well tissue culture plate was seeded with 2 to 5×10^4 cells in 1 ml of MEM Alpha, 10% FBS, 1% antibiotic/antimycotic solution. After 3 days, medium was exchanged by 1 ml of the same, fresh medium. After 5 days, medium was exchanged again, this time by 1 ml of medium containing 2% FBS, 1% antibiotic/antimycotic solution. After 7 days, the cells were fully differentiated and formed large multinucleated myotubes. At this stage, the medium was replaced by 1 ml of glucose-deficient DMEM supplemented with 3.7 g/l NaHCO3 and 25 mM HEPES-NaOH followed by a starvation period of 2 to 6 hours at 37° C. […] The compounds were tested at three different concentrations (2, 0.2 and 0.02 μM) on differentiated L6 cells.

[3] = target: T1, human ACCβ enzyme (Homo sapiens, UniProt O00763); experiment: Human ACCβ enzyme activity / inhibition assay (radiometric); type: biochemical; conditions: for Effect on K0.5 of K-citrate / Effect on Vmax of the ACC enzyme reaction: titration of compound at 0.5, 1 and 2 times IC50
T1 construct: The cloning of the full length human muscle-type ACCβ cDNA and expression in HEK293 cells; made in house; host or cells: HEK293 cells (ATCC CRL-1573), plasmid pRF33D
T1 sequence (O00763 whole entry): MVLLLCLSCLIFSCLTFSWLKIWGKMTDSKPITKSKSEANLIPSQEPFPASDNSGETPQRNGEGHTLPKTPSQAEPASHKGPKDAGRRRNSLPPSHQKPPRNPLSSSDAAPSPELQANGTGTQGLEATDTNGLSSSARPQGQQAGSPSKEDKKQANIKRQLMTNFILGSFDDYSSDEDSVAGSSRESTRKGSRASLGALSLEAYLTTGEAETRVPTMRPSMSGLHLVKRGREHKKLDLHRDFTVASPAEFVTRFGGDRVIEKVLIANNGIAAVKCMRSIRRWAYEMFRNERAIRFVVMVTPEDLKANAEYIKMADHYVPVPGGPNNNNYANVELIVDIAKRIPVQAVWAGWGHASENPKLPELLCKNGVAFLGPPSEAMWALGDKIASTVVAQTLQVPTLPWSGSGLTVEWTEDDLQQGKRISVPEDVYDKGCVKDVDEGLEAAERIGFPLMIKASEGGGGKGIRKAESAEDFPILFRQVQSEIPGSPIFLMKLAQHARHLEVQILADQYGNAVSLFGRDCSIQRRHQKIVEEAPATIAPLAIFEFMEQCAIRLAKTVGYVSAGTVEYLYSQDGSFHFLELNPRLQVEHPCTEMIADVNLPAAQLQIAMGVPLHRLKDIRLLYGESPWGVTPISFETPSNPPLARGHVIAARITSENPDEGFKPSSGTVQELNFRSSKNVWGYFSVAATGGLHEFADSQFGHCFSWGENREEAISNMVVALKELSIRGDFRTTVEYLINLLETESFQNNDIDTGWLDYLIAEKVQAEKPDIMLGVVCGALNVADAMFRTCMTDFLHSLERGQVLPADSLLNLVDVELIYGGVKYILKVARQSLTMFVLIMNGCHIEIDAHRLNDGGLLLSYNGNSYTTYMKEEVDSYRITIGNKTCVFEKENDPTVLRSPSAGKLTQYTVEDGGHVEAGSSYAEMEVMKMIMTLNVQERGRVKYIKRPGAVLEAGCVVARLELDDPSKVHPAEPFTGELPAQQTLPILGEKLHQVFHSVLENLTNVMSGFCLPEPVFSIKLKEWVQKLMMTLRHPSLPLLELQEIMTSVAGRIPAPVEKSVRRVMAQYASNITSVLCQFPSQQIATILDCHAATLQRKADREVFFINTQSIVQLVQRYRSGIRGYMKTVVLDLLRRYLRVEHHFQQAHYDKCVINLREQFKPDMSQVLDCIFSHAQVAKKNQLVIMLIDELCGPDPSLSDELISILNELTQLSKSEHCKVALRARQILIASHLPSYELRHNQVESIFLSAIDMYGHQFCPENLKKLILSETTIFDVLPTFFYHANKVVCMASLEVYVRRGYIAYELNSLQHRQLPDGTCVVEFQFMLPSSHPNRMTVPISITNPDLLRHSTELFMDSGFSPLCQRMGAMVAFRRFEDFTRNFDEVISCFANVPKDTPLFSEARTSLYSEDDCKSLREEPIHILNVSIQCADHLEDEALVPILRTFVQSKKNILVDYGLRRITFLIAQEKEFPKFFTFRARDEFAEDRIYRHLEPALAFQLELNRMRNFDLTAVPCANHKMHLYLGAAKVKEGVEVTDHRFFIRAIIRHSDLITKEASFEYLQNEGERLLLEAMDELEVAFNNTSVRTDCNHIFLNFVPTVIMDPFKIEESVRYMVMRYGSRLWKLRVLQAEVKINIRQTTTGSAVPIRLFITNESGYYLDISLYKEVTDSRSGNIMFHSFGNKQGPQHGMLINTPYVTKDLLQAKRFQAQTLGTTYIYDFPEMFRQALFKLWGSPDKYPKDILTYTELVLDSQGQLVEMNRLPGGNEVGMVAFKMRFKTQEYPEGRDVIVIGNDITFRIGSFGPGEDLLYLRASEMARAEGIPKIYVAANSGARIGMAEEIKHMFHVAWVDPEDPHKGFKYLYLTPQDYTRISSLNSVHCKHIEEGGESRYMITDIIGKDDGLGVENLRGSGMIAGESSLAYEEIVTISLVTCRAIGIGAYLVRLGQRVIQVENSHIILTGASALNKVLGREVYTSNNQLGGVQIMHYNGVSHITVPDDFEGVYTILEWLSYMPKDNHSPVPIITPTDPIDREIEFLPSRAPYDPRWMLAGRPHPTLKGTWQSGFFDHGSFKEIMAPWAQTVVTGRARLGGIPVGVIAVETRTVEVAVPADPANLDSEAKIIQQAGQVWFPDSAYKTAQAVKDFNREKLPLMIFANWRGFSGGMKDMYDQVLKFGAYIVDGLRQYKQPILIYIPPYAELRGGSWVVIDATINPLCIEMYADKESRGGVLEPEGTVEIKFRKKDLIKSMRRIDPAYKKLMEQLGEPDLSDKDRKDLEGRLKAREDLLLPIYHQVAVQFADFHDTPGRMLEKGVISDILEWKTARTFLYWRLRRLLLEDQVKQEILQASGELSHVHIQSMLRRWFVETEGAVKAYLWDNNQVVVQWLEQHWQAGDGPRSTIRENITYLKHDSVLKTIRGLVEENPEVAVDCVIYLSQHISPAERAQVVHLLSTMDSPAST
Experimental: The cloning of the full length human muscle-type ACCβ cDNA and expression in HEK293 cells (ATCC, #CRL-1573) was performed as follows. The ACCβ cDNA was amplified by the polymerase chain reaction (PCR) and was cloned using standard recombinant DNA techniques. The PCR reaction was performed with the Expand Long Template PCR System (Roche Molecular Biochemicals, #1 681 8340) and 0.5 ng of cDNA from human skeletal muscle as template. The primers used for PCR amplification were designed on the basis of the published sequence of the human ACCβ cDNA isolated from a human liver cDNA library (Abul-Elheiga et al. J. Biol Chem. 272, 10669-10677, 1997). The sequence of the forward primer ACCB1 was 5′-[…]-3′; it includes a NheI restriction cleavage site for subcloning and a Kozak translation initiation consensus sequence preceding the ATG start codon. The sequence of the reverse primer ACCB8 was 5′-[…]-3′; it includes a stop codon and a XhoI restriction cleavage site for subcloning. The amplified DNA fragment of approximately 7.4 kb was cloned into a mammalian expression vector. The resulting plasmid isolates, pRF33A, B, C, D, and E were individually transfected in human embryonic kidney 293 cells (HEK293) using a standard lipid transfection method. Cell extracts of transfected cells were prepared in a lysis buffer containing 0.4 mg/ml digitonin and enzyme activity was determined using a radiometric ACC activity assay as described below. Plasmid pRF33D gave the highest activity and was chosen for large scale transfections of HEK293 cells and enzyme purification.
Since ACC enzyme activities in crude cell lysates were very low, enrichment of ACCβ enzyme expressed in HEK293 cells was achieved by a single anion exchange chromatography step. Cell lysates were run over a 5 ml Econo Pac High Q column (Bio-Rad, #732-0027). Bound proteins were eluted by a gradient of NaCl from 0 to 1 M in 50 mM Tris-HCl, pH 7.5, 1 mM DTT, 5% glycerol. Fractions containing high ACCβ enzyme activity were pooled and stored at −20° C.
Standard ACCβ enzyme assays, in a total volume of 100 μl, contained 50 mM HEPES-KOH, pH 7.5, 10 mM K-citrate, 10 mM MgSO4, 1 mM ATP, 0.1 mM DTT, 2% DMSO, 0.1 mg/ml fatty acid-free BSA, 0.2 mM acetyl-CoA, 2 mM KHCO3, 0.2 mM [^14C]NaHCO3 (50-60 mCi/mmol) and cell lysate or purified ACCβ enzyme. Reactions were incubated at 37° C. for 45 min. and stopped by the addition of 50 μl of 2 N HCl. Terminated reactions were incubated at 50° C. over night to evaporate non-incorporated [^14C]NaHCO3. [^14C]-labeled malonyl-CoA reaction product was quantitated by liquid scintillation counting after the addition of 20 μl of Microscint 20 (Canberra Packard, #6013621) on a TopCount NXT microplate scintillation counter (Canberra Packard).
Inhibition of ACCβ activity was determined at saturating substrate concentrations with two-fold serial dilutions of test compounds spanning a concentration range of at least two log units. IC50 values were calculated with the GraFit software (Erithacus Software Ltd.). Kinetic parameters (Km, Vmax and K0.5) were determined by varying one substrate (or allosteric effector) in a two-fold serial dilution over a concentration range of at least two log units while keeping all other substrates at constant saturating concentrations. Fitting to the Michaelis-Menten equation (for calculation of Km of substrates) and fitting to the Hill equation (for calculation of K0.5of the allosteric activator K-citrate) was done with the GraFit software. To determine the mode of action of Soraphens, determinations of Km for ATP and acetyl-CoA and of K0.5 for K-citrate were repeated in the absence and in the presence of the three different Soraphens at 0.5, 1 and 2 times their IC50 and the data were fitted to the equation for non-competitive inhibition with the GraFit software.

[4] = L6, repeated test Table 3, 0.002 μM
[5] = L6, repeated test Table 3, 0.02 μM
[6] = L6, repeated test Table 3, 0.2 μM

SMILES: CO[C@H]1CCCC[C@@H](c2ccccc2)OC(=O)[C@@H](C)C2(O)O[C@H]([C@@H](C)[C@H](O)[C@H]2OC)[C@@H](C)/C=C/[C@H]1OC [Cpd (Ia), Soraphen A 1-α]
- Duration of effect (entire assessment period) [1]: 6 h
- Time after administration at which the effect is apparent [1]: approx. 60 min
- % increase over vehicle ([1]; 5 min): −15%
- Accumulated 14CO2 exhaled ([1]; 5 min): 133 +/− 41 cpm
- % increase over vehicle ([1]; 15 min): −30%
- Accumulated 14CO2 exhaled ([1]; 15 min): 121 +/− 36 cpm
- % increase over vehicle ([1]; 30 min): 17%
- Accumulated 14CO2 exhaled ([1]; 30 min): 211 +/− 32 cpm
- % increase over vehicle ([1]; 60 min): 41%
- Accumulated 14CO2 exhaled ([1]; 60 min): 544 +/− 102 cpm
- % increase over vehicle ([1]; 90 min): 40%
- Accumulated 14CO2 exhaled ([1]; 90 min): 1440 +/− 90 cpm
- % increase over vehicle ([1]; 120 min): 56%
- Accumulated 14CO2 exhaled ([1]; 120 min): 2614 +/− 136 cpm
- % increase over vehicle ([1]; 150 min): 62%
- Accumulated 14CO2 exhaled ([1]; 150 min): 4333 +/− 235 cpm
- % increase over vehicle ([1]; 180 min): 51%
- Accumulated 14CO2 exhaled ([1]; 180 min): 5729 +/− 397 cpm
- % increase over vehicle ([1]; 240 min): 56%
- Accumulated 14CO2 exhaled ([1]; 240 min): 9572 +/− 809 cpm
- % increase over vehicle ([1]; 300 min): 77%
- Accumulated 14CO2 exhaled ([1]; 300 min): 13261 +/− 1.445 cpm
- % increase over vehicle ([1]; 360 min): 60%
- Accumulated 14CO2 exhaled ([1]; 360 min): 16134 +/− 2.130 cpm
- Fold stimulation ([2]; L6, Table 2, 0.02 μM): 1.8 fold
- Palmitate oxidation rate ([2]; L6, Table 2, 0.02 μM): 16.4 +/− 1.0 pmol · h^−1 · well^−1
- Fold stimulation ([2]; L6, Table 2, 0.2 μM): 1.8 fold
- Palmitate oxidation rate ([2]; L6, Table 2, 0.2 μM): 15.8 +/− 0.5 pmol · h^−1 · well^−1
- Fold stimulation ([2]; L6, Table 2, 2 μM): 1.7 fold
- Palmitate oxidation rate ([2]; L6, Table 2, 2 μM): 14.9 +/− 0.4 pmol · h^−1 · well^−1
- Fold stimulation [2, 4]: 1.5 fold
- Palmitate oxidation rate [2, 4]: 8.3 +/− 0.0 pmol · h^−1 · well^−1
- Fold stimulation [2, 5]: 2.2 fold
- Palmitate oxidation rate [2, 5]: 12.1 +/− 1.0 pmol · h^−1 · well^−1
- Fold stimulation [2, 6]: 2.7 fold
- Palmitate oxidation rate [2, 6]: 14.6 +/− 0.1 pmol · h^−1 · well^−1
- EC50 ([2]; Rattus norvegicus, L6, read-out: EC50 for stimulation of palmitate oxidation): 2 to 20 nM
- IC50 [3]: 3 nM
- Effect on K0.5 of K-citrate [3]: did not change
- Effect on Vmax of the ACC enzyme reaction [3]: dose-dependent decrease
- Effect on K0.5 of K-citrate ([3]; listed as Soraphen A 1-α): little effect
- Effect on Vmax of the ACC enzyme reaction ([3]; listed as Soraphen A 1-α): reduced
